Results on four molecules are retold here after ChEMBL document CHEMBL1268861, “Isolation and characterization of diastereomers of discorhabdins H and K and assignment of absolute configuration to discorhabdins D, N, Q, S, T, and U” (J Nat Prod, 2010).

pIC50: −log10 of the molar value.

In this test the test system is P388. Briefly: Cytotoxicity against mouse P388 cells. The format is functional, cell-based.
Broadly, the pIC50 is the negative decadic logarithm of the IC50, by convention in mol/L. A higher pIC50 goes with a low IC50. Take `Cn1cnc(SC2=CC(=O)C=C3S[C@@H]4C[C@]23C2=C(N4)C(=O)c3[nH]cc4c3C2=NCC4)c1C[C@H](N)C(=O)O` [DISCORHABDIN K2]: the pIC50 was < 5.09.

Take `Cn1cnc(S[C@H]2[C@H]3C(=O)C=C4S[C@H]5C[C@]42C2=C(N5)C(=O)c4[nH]cc5c4C2=[N+]3CC5)c1C[C@H](N)C(=O)O` [DISCORHABDIN H]: the pIC50 is < 5.09.

Consider `Cn1cnc(SC2=CC(=O)C=C3S[C@H]4C[C@@]23C2=C(N4)C(=O)c3[nH]cc4c3C2=NCC4)c1C[C@H](N)C(=O)O` [DISCORHABDIN K], for which the pIC50 is < 5.09.

`Cn1cnc(S[C@@H]2[C@@H]3C(=O)C=C4S[C@@H]5C[C@@]42C2=C(N5)C(=O)c4[nH]cc5c4C2=[N+]3CC5)c1C[C@H](N)C(=O)O` [DISCORHABDIN H2]: the pIC50 was < 5.09.
